{"source": "patent US8148089B2", "about": "“Alpha-synuclein kinase” (Elan Pharma International Limited, priority 2006, dated 2012)", "key": {"PLK2": {"target": "PLK2 (Homo sapiens, UniProt Q9NYY3)", "sequence (Q9NYY3 whole entry)": "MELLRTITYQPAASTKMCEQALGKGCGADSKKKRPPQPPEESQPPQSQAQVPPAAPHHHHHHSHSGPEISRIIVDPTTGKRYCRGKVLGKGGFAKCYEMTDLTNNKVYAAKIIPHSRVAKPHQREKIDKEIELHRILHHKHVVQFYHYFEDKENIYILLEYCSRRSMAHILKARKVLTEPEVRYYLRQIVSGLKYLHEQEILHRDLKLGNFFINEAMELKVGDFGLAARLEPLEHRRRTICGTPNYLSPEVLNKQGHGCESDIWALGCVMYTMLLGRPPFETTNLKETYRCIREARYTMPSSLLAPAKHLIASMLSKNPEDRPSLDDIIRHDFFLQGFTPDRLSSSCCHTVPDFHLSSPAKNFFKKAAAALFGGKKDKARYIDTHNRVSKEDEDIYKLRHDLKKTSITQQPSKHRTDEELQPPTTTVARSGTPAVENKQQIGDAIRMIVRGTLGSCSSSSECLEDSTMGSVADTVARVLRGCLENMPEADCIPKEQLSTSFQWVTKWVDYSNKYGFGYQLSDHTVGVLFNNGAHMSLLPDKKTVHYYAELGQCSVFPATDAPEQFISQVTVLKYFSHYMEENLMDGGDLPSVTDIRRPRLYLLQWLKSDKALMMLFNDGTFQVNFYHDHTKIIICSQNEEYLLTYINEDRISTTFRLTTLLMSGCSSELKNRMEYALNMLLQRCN", "assay": "Straight biochemical assay: PLK2-driven synuclein phosphorylation in vitro", "details": "Table 19"}, "[1]": {"test_system": "synuclein phosphorylation in C56BL/6 E46K-Synuclein transgenic mouse cortical cultures", "assay_type": "cell-based", "procedure": "(§1) Mouse cortical cultures from fetal (i) Swiss-Webster, (ii) C56BL/6 WT and (iii) C56BL/6 E46K-Synuclein Trangenic mice were prepared and maintained in B27/DMEM/1% Penicillin-Streptomycin at 37° C./10% CO2 for three to fourteen days and then treated with kinase inhibitors.\n(§2) Cultures were exposed to inhibitors for two hours in B27/DMEM/1% Penicillin-Streptomycin. Cells were immediately washed in 100 μL of PBS plus Mg^2+ and Ca^2+, and harvested in ice-cold CEB minus EGTA plus protease inhibitors, frozen on dry ice and stored at −80° C. until processed. A Micro BCA (Pierce) total protein assay, and total synuclein and phospho-synuclein ELISAs were performed on each plate of treated cells using standard methods."}, "[2]": {"test_system": "synuclein phosphorylation in rat ventral mesencephalon cultures (E46K-Synuclein lentivirus)", "assay": "Synuclein phosphorylation in RVM transduced with E46K-Synuclein", "assay_type": "cell-based", "procedure": "(§3) Rat Ventral Mesencephalon (RVM) cultures were prepared from E15 Wistar rats. The RVM cultures were cultured for 2 days and transduced with 0.75 MOI E46K-Synuclein lentivirus alone, or 0.75 MOI E46K-Synuclein lentivirus plus 0.75 MOI ca-PLK2 lentivirus. […] Transduced cultures were maintained in neuronal media with B27/1% FBS and 37° C./5% CO2 until treated with inhibitors. On DIV 17 (which corresponds to 15 days after viral transduction of the cultures) cells were treated with inhibitors for two hours. Cells were then harvested as detailed above in neuronal media with B27/1% FBS. A Micro BCA (Pierce) total protein assay, and total synuclein and phospho-synuclein ELISAs were performed on each plate of treated cells using standard methods."}, "[3]": {"test_system": "synuclein phosphorylation in rat ventral mesencephalon cultures (E46K-Synuclein plus ca-PLK2 lentivirus)", "assay": "Synuclein phosphorylation in RVM transduced with E46K-Synuclein and caPLK2", "assay_type": "cell-based", "details": "for pEC50: inhibitor 2 h on DIV 17", "procedure": "as §3\nIn caPLK2 the polo-box has been deleted, activating the Thr to Asp mutation in the kinase activation loop."}, "endogenous kinase (293)": {"test_system": "endogenous kinase (293)", "assay": "Synuclein phosphorylation by endogenous kinase in HEK-293 cells (synuclein + vector)", "assay_type": "cell-based, human", "procedure": "(§4) All vectors had the sequence coding for the protein of interest. Transfection was accomplished using Lipofectamine 2000 (Invitrogen, Carlsbad, Calif.) with 0.08 μg vector. Cells were washed and harvested 48 hours post-transfection. A Micro BCA (Pierce) total protein assay and total synuclein and phospho-synuclein ELISAs were performed on each plate of treated cells."}, "[4]": {"target": "T1, over-expressed PLK2 (293) (Homo sapiens, UniProt Q9NYY3)", "T1 construct": "expressed in transfected cells; host or cells: HEK-293 naive cells, CMV-promoter expression vector, Lipofectamine 2000", "T1 sequence (Q9NYY3 whole entry)": "as above", "assay": "Synuclein phosphorylation in HEK-293 cells over-expressing synuclein and PLK2", "assay_type": "cell-based", "details": "for Rank order of potency, Over-Expressed PLK2 (293): Table 19; for Rank order of potency, Synuclein + PLK2: Table 22", "procedure": "as §4"}, "[5]": {"target": "T2, over-expressed PLK3 (293) (Homo sapiens, UniProt Q9H4B4)", "T2 construct": "expressed in transfected cells; host or cells: HEK-293 naive cells, CMV-promoter expression vector", "T2 sequence (Q9H4B4 whole entry)": "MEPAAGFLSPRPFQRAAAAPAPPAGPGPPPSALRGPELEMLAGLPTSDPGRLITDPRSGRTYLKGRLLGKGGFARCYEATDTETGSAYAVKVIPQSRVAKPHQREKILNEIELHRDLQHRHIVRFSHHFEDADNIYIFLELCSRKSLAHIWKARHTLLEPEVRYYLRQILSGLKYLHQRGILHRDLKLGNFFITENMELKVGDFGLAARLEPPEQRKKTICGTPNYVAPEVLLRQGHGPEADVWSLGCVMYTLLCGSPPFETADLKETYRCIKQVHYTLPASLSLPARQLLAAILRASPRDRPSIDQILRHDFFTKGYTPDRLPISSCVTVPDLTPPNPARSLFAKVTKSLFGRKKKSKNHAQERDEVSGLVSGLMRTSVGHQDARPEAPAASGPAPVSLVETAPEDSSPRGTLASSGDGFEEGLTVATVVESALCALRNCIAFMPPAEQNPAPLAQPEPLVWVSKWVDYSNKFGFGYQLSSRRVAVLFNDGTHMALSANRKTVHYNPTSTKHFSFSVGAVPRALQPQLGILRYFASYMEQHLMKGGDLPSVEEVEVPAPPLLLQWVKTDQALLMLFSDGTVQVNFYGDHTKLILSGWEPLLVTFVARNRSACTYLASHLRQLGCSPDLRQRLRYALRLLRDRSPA", "assay": "Synuclein phosphorylation in HEK-293 cells over-expressing synuclein and PLK3", "assay_type": "cell-based", "details": "for Rank order of potency, Synuclein + PLK3: Table 22", "procedure": "as §4"}, "[6]": {"target": "T3, over-expressed PLK4 (293) (Homo sapiens, UniProt O00444)", "T3 sequence (O00444 1-970)": "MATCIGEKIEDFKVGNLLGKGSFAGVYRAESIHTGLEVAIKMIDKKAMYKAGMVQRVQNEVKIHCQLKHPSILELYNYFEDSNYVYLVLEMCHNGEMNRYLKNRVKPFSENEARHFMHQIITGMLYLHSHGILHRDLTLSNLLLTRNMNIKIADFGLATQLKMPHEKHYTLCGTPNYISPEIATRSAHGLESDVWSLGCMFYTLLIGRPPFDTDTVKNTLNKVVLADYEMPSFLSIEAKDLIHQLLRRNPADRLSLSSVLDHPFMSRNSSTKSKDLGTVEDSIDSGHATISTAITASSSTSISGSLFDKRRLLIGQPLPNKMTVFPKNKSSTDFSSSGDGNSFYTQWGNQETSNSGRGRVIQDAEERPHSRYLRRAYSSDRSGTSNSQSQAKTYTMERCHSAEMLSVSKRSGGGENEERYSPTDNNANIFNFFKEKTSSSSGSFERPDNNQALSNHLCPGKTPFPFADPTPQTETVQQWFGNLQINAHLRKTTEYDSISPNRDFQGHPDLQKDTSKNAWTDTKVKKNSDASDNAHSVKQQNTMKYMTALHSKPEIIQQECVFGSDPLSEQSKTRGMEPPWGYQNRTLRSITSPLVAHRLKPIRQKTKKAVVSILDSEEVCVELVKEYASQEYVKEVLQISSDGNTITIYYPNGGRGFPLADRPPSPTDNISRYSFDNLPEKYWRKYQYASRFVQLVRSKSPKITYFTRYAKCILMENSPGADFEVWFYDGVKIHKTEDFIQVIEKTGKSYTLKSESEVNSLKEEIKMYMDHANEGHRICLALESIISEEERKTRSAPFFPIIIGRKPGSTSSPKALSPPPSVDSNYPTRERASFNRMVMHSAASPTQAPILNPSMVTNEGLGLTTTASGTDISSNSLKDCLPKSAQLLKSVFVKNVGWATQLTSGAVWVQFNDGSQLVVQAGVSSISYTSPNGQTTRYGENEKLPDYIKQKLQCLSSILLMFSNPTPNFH", "assay": "Synuclein phosphorylation in HEK-293 cells over-expressing synuclein and PLK4", "assay_type": "cell-based", "details": "for pEC50: HEK-293, Example 16, read-out: EC50 based on percent inhibition of synuclein phosphorylation, Synuclein + PLK4", "procedure": "as §4"}, "[7]": {"test_system": "synuclein phosphorylation in the cellular paradigms tested", "assay": "Inhibition of synuclein phosphorylation, several cellular paradigms", "assay_type": "cell-based"}, "[8]": {"target": "synuclein phosphorylation by endogenous kinase in C56BL/6 WT mouse cortical cultures", "assay": "Synuclein phosphorylation in WT mouse cortical cultures (WT-MCC)", "assay_type": "cell-based", "details": "inhibitor 2 h; phospho-synuclein ELISA", "procedure": "as §1, §2"}, "[9]": {"test_system": "synuclein phosphorylation in MCC", "assay": "Synuclein phosphorylation in MCC treated with TBB", "assay_type": "cell-based, mouse", "details": "even at concentrations of 100 μM; data not shown", "procedure": "as §1, §2\nTo confirm that the inhibitory effect DMAT is due to inhibition of […], MCC were treated with TBB, a very specific CKII inhibitor. TBB had no effect on synuclein phosphorylation, even at concentrations of 100 μM (data not shown). Thus, we are confident that the inhibitory effect of DMAT on synuclein phosphorylation is due to its direct activity on PLK2 and not CKII."}}, "note": "pEC50: −log10 of the molar value. Where two headings read alike, the source gives them in different places."}
{"compound": "CN(C)c1nc2c(Br)c(Br)c(Br)c(Br)c2[nH]1", "note": "[DMAT, 2-Dimethylamino-4,5,6,7-tetrabromo-1H-benzimidazole]", "values": [{"measurement": "Rank order of potency, Straight Biochemical", "setting": "PLK2", "result": 2}, {"measurement": "Rank order of potency, E46K-Syn TG MCC", "setting": "[1]; Table 19", "result": 4}, {"measurement": "Rank order of potency, RVM E46K-Synuclein", "setting": "[2]; Table 19", "result": 4}, {"measurement": "pEC50", "setting": "[3]; Rattus norvegicus", "result": 4.55}, {"measurement": "Rank order of potency, RVM E46K-Synuclein caPLK2", "setting": "[3]; Table 19", "result": 4}, {"measurement": "Rank order of potency, Synuclein + Vector", "setting": "endogenous kinase (293); Table 22", "result": 2}, {"measurement": "Rank order of potency, Over-Expressed PLK2 (293)", "setting": "[4]", "result": 4}, {"measurement": "Rank order of potency, Synuclein + PLK2", "setting": "[4]", "result": 2}, {"measurement": "Rank order of potency, Synuclein + PLK3", "setting": "[5]", "result": 2}, {"measurement": "pEC50", "setting": "[6]", "result": 4.13}, {"measurement": "Rank order of potency, Synuclein + PLK4", "setting": "[6]; Table 22", "result": 2}, {"measurement": "pEC50", "setting": "[7]; Homo sapiens, HEK293, read-out: EC50 values for the over-expressed PLKs", "result": "4.13 to 4.85"}, {"measurement": "pEC50", "setting": "[7]; read-out: EC50 values for inhibition of synuclein phosphorylation in the cellular paradigms", "result": "4.48 to 4.80"}]}
{"compound": "NC(=O)c1sc2c([N+](=O)[O-])cc(C(F)(F)F)cc2[n+]1[O-]", "note": "[ELN-481080]", "values": [{"measurement": "Rank order of potency, Straight Biochemical", "setting": "PLK2", "result": 3}, {"measurement": "pEC50", "setting": "[3]; Rattus norvegicus", "result": 4.60}, {"measurement": "Rank order of potency, Over-Expressed PLK2 (293)", "setting": "[4]", "result": 5}, {"measurement": "Rank order of potency, Synuclein + PLK2", "setting": "[4]", "result": 3}, {"measurement": "Rank order of potency, Synuclein + PLK3", "setting": "[5]", "result": 3}, {"measurement": "inhibition of synuclein phosphorylation by over-expressed PLK3", "setting": "[5]; concentrations of 30-100 μM", "result": "30-40%"}, {"measurement": "pEC50", "setting": "[6]", "result": "< 4.00"}, {"measurement": "inhibition of synuclein phosphorylation by over-expressed PLK4", "setting": "[6]; concentrations of 30-100 μM", "result": "30-40%"}, {"measurement": "pEC50", "setting": "[7]; range over (most of) the cell types tested, read-out: EC50 values for inhibition of synuclein phosphorylation in the cellular paradigms", "result": "4.42 to 4.92"}]}
{"compound": "COC[C@H]1OC(=O)c2coc3c2[C@@]1(C)C1=C(C3=O)[C@@H]2CCC(=O)[C@@]2(C)C[C@H]1OC(C)=O", "note": "[Wortmannin]", "values": [{"measurement": "pEC50", "setting": "[3]; Rattus norvegicus", "result": "< 4.00"}]}
{"compound": "CC[C@@H]1C(=O)N(C)c2cnc(Nc3ccc(C(=O)NC4CCN(C)CC4)cc3OC)nc2N1C1CCCC1", "note": "[ELN-481574-2, 4-[[(7r)-8-cyclopentyl-7-ethyl-5,6,7,8-tetrahydro-5-methyl-6-oxo-2-pteridinyl]amino]-3-methoxy-n-(1-methyl-4-piperidinyl)-benzamide]", "values": [{"measurement": "pEC50", "setting": "[7]; most EC50 values, all cellular paradigms, read-out: EC50 values in cellular paradigms", "result": "≥ 7.00"}]}
{"compound": "Scytonemin", "values": [{"measurement": "pEC50", "setting": "[8]", "result": "< 4.00"}, {"measurement": "pEC50", "setting": "[1]; inhibitor 2 h, phospho-synuclein ELISA, read-out: E46K-Syn TG MCC (EC50)", "result": "< 4.00"}, {"measurement": "pEC50", "setting": "[2]; inhibitor 2 h on DIV 17", "result": "< 4.00"}, {"measurement": "pEC50", "setting": "[3]", "result": "< 4.00"}, {"measurement": "pEC50", "setting": "endogenous kinase (293); Table 18", "result": "< 4.00"}, {"measurement": "inhibition of 50% of synuclein phosphorylation", "setting": "[7]; in any of the cells or in the in vitro assay", "result": "did not inhibit 50% of synuclein phosphorylation"}]}
{"compound": "Brc1c(Br)c(Br)c2[nH]nnc2c1Br", "note": "[TBB, 4,5,6,7-Tetrabromo-2-azabenzimidazole]", "values": [{"measurement": "effect on synuclein phosphorylation", "setting": "[9]", "result": "no effect"}]}
